Results taken from ChEMBL document CHEMBL5463727, “Data for DCP probe SGK3-PROTAC1” (2023).

Experiments:
[1] = biological target: Dual specificity testis-specific protein kinase 1 (Homo sapiens) (UniProt Q15569); test: % Activity remaining of TESK1 in the Dundee kinase panel at 1.0 µM; details: Compound concentration 1.0 uM
[2] = biological target: Serine/threonine-protein kinase OSR1 (Homo sapiens) (UniProt O95747); test: % Activity remaining of OSR1 in the Dundee kinase panel at 1.0 µM; details: Compound concentration 1.0 uM
[3] = biological target: Aurora kinase A (Homo sapiens) (UniProt O14965); test: % Activity remaining of Aurora A in the Dundee kinase panel at 1.0 µM; details: Compound concentration 1.0 uM
[4] = biological target: Ephrin type-B receptor 1 (Homo sapiens) (UniProt P54762); test: % Activity remaining of EPH-B1 in the Dundee kinase panel at 1.0 µM; details: Compound concentration 1.0 uM
[5] = biological target: MAP kinase-activated protein kinase 5 (Homo sapiens) (UniProt Q8IW41); test: % Activity remaining of PRAK in the Dundee kinase panel at 1.0 µM; details: Compound concentration 1.0 uM
[6] = biological target: Dual specificity tyrosine-phosphorylation-regulated kinase 1A (Homo sapiens) (UniProt Q13627); test: % Activity remaining of DYRK1A in the Dundee kinase panel at 1.0 µM; details: Compound concentration 1.0 uM
[7] = biological target: Misshapen-like kinase 1 (Homo sapiens) (UniProt Q8N4C8); test: % Activity remaining of MINK1 in the Dundee kinase panel at 1.0 µM; details: Compound concentration 1.0 uM
[8] = biological target: Eukaryotic elongation factor 2 kinase (Homo sapiens) (UniProt O00418); test: % Activity remaining of EF2K in the Dundee kinase panel at 1.0 µM; details: Compound concentration 1.0 uM
[9] = biological target: Serine/threonine-protein kinase SIK3 (Homo sapiens) (UniProt Q9Y2K2); test: % Activity remaining of SIK3 in the Dundee kinase panel at 1.0 µM; details: Compound concentration 1.0 uM
[10] = biological target: MAP kinase-activated protein kinase 2 (Homo sapiens) (UniProt P49137); test: % Activity remaining of MAPKAP-K2 in the Dundee kinase panel at 1.0 µM; details: Compound concentration 1.0 uM
[11] = biological target: T1, Serine/threonine-protein kinase Sgk1 (Homo sapiens) (UniProt O00141); test: SGK1 degradation assay; type: functional
T1 sequence (whole entry): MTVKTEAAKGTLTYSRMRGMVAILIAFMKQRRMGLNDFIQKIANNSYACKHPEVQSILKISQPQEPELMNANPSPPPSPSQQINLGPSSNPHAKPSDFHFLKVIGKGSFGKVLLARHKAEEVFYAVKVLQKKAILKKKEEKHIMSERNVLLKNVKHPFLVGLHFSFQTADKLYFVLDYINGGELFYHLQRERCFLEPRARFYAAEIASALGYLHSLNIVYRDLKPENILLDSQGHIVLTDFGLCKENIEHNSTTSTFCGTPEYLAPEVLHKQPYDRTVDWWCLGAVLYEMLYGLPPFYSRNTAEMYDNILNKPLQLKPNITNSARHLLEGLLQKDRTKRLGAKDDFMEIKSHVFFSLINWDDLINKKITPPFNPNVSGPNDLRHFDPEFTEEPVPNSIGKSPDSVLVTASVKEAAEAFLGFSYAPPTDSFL

[12] = biological target: Inhibitor of nuclear factor kappa-B kinase subunit epsilon (Homo sapiens) (UniProt Q14164); test: % Activity remaining of IKK epsilon in the Dundee kinase panel at 1.0 µM; details: Compound concentration 1.0 uM
[13] = biological target: Serine/threonine-protein kinase Nek6 (Homo sapiens) (UniProt Q9HC98); test: % Activity remaining of NEK6 in the Dundee kinase panel at 1.0 µM; details: Compound concentration 1.0 uM
[14] = biological target: Interleukin-1 receptor-associated kinase 4 (Homo sapiens) (UniProt Q9NWZ3); test: % Activity remaining of IRAK4 in the Dundee kinase panel at 1.0 µM; details: Compound concentration 1.0 uM
[15] = biological target: Death-associated protein kinase 1 (Homo sapiens) (UniProt P53355); test: % Activity remaining of DAPK1 in the Dundee kinase panel at 1.0 µM; details: Compound concentration 1.0 uM
[16] = biological target: Tau-tubulin kinase 2 (Homo sapiens) (UniProt Q6IQ55); test: % Activity remaining of TTBK2 in the Dundee kinase panel at 1.0 µM; details: Compound concentration 1.0 uM
[17] = biological target: Serine/threonine-protein kinase SIK2 (Homo sapiens) (UniProt Q9H0K1); test: % Activity remaining of SIK2 in the Dundee kinase panel at 1.0 µM; details: Compound concentration 1.0 uM
[18] = biological target: Serine/threonine-protein kinase pim-2 (Homo sapiens) (UniProt Q9P1W9); test: % Activity remaining of PIM2 in the Dundee kinase panel at 1.0 µM; details: Compound concentration 1.0 uM
[19] = biological target: Discoidin domain-containing receptor 2 (Homo sapiens) (UniProt Q16832); test: % Activity remaining of DDR2 in the Dundee kinase panel at 1.0 µM; details: Compound concentration 1.0 uM
[20] = biological target: Mitogen-activated protein kinase kinase kinase 1 (Homo sapiens) (UniProt Q13233); test: % Activity remaining of MEKK1 in the Dundee kinase panel at 1.0 µM; details: Compound concentration 1.0 uM
[21] = biological target: Ribosomal protein S6 kinase beta-1 (Homo sapiens, UniProt P23443); test: RPS6KB1 degradation assay; type: functional
[22] = biological target: Casein kinase I isoform gamma-2 (Homo sapiens) (UniProt P78368); test: % Activity remaining of CK1 gamma 2 in the Dundee kinase panel at 1.0 µM; details: Compound concentration 1.0 uM
[23] = biological target: Serine/threonine-protein kinase Chk2 (Homo sapiens) (UniProt O96017); test: % Activity remaining of CHK2 in the Dundee kinase panel at 1.0 µM; details: Compound concentration 1.0 uM
[24] = biological target: SRSF protein kinase 1 (Homo sapiens) (UniProt Q96SB4); test: % Activity remaining of SRPK1 in the Dundee kinase panel at 1.0 µM; details: Compound concentration 1.0 uM
[25] = biological target: Serine/threonine-protein kinase PAK 5 (Homo sapiens) (UniProt Q9P286); test: % Activity remaining of PAK5 in the Dundee kinase panel at 1.0 µM; details: Compound concentration 1.0 uM
[26] = biological target: Tyrosine-protein kinase BTK (Homo sapiens) (UniProt Q06187); test: % Activity remaining of BTK in the Dundee kinase panel at 1.0 µM; details: Compound concentration 1.0 uM
[27] = biological target: Serine/threonine-protein kinase PLK1 (Homo sapiens) (UniProt P53350); test: % Activity remaining of PLK1 in the Dundee kinase panel at 1.0 µM; details: Compound concentration 1.0 uM
[28] = biological target: Serine/threonine-protein kinase 24 (Homo sapiens) (UniProt Q9Y6E0); test: % Activity remaining of MST3 in the Dundee kinase panel at 1.0 µM; details: Compound concentration 1.0 uM
[29] = biological target: Angiopoietin-1 receptor (Homo sapiens) (UniProt Q02763); test: % Activity remaining of TIE2 in the Dundee kinase panel at 1.0 µM; details: Compound concentration 1.0 uM
[30] = biological target: Aurora kinase B (Homo sapiens) (UniProt Q96GD4); test: % Activity remaining of Aurora B in the Dundee kinase panel at 1.0 µM; details: Compound concentration 1.0 uM
[31] = biological target: Tyrosine-protein kinase CSK (Homo sapiens) (UniProt P41240); test: % Activity remaining of CSK in the Dundee kinase panel at 1.0 µM; details: Compound concentration 1.0 uM
[32] = biological target: Proto-oncogene tyrosine-protein kinase Src (Homo sapiens) (UniProt P12931); test: % Activity remaining of Src in the Dundee kinase panel at 1.0 µM; details: Compound concentration 1.0 uM
[33] = biological target: Serine/threonine-protein kinase PINK1, mitochondrial (Homo sapiens) (UniProt Q9BXM7); test: % Activity remaining of PINK in the Dundee kinase panel at 1.0 µM; details: Compound concentration 1.0 uM
[34] = biological target: Mitogen-activated protein kinase kinase kinase 9 (Homo sapiens) (UniProt P80192); test: % Activity remaining of MLK1 in the Dundee kinase panel at 1.0 µM; details: Compound concentration 1.0 uM

Chain of Serine/threonine-protein kinase Nek6 (Homo sapiens) (Q9HC98 whole entry): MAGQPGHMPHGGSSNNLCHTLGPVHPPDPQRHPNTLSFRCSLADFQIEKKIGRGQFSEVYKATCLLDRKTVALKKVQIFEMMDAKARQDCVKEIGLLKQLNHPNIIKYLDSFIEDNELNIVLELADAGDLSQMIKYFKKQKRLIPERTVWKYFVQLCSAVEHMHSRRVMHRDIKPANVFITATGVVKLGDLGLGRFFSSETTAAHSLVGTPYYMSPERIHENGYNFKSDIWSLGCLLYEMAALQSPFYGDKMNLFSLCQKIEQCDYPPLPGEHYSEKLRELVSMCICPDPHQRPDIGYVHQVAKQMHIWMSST
Chain of Mitogen-activated protein kinase kinase kinase 1 (Homo sapiens) (Q13233 whole entry): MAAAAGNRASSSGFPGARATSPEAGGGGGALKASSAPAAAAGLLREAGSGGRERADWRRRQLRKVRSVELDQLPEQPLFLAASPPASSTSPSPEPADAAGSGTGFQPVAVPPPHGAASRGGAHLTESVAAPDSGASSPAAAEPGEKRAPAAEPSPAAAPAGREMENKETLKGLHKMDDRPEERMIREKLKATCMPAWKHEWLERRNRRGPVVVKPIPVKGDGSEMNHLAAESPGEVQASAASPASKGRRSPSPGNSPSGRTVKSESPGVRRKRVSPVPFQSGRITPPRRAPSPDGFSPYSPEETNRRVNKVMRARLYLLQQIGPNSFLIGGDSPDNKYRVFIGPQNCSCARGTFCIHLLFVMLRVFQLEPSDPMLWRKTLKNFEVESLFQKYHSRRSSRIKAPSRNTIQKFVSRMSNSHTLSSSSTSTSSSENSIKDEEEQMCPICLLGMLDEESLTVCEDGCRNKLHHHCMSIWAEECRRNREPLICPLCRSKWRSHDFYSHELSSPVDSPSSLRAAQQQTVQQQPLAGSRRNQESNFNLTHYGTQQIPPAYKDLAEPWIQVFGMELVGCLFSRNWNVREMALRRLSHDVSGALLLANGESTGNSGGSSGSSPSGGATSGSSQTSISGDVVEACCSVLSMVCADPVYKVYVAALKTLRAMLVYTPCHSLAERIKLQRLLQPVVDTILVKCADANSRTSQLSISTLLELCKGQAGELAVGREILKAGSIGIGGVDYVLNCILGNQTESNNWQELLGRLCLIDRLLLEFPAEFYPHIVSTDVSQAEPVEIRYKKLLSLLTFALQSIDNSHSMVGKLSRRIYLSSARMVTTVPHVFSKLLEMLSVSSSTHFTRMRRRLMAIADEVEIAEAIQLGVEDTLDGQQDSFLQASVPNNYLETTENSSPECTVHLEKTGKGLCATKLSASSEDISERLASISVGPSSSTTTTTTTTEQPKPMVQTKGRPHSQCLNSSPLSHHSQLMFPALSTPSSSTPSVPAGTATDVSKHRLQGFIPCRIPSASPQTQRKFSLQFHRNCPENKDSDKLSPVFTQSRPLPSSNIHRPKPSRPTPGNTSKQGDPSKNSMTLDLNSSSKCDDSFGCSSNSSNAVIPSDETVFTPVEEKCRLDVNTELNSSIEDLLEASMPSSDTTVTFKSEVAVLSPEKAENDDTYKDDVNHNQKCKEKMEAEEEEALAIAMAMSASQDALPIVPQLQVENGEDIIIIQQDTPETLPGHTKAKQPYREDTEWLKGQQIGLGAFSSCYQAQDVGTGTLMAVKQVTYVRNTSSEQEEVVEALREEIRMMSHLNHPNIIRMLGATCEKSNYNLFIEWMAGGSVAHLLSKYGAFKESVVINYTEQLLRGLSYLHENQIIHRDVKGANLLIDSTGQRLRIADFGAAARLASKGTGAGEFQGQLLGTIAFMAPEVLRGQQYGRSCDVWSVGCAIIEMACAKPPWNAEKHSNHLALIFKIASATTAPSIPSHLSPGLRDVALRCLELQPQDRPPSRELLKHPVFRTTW
Chain of Aurora kinase A (Homo sapiens) (O14965 whole entry): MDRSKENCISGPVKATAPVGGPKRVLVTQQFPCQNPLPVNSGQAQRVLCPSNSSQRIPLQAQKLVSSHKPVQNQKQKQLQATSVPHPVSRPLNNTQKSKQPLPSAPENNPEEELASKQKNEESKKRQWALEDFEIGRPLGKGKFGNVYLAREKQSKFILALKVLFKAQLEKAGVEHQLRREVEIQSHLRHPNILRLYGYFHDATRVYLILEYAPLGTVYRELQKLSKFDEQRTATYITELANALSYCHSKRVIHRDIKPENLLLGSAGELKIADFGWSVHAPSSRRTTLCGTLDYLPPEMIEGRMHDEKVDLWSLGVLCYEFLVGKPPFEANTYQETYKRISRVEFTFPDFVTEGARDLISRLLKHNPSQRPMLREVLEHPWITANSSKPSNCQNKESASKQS
Chain of MAP kinase-activated protein kinase 2 (Homo sapiens) (P49137 whole entry, looked up): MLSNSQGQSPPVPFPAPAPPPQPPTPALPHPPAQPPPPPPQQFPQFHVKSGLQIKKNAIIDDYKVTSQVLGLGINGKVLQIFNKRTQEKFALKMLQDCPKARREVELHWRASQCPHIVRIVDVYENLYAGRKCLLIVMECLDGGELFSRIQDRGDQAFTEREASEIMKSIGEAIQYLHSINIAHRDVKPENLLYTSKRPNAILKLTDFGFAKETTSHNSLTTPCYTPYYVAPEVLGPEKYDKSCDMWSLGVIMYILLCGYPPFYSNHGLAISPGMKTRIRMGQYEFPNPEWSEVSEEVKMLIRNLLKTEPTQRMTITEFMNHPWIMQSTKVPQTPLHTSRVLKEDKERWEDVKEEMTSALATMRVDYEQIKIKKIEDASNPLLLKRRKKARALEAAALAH
Chain of Serine/threonine-protein kinase PINK1, mitochondrial (Homo sapiens) (Q9BXM7 whole entry): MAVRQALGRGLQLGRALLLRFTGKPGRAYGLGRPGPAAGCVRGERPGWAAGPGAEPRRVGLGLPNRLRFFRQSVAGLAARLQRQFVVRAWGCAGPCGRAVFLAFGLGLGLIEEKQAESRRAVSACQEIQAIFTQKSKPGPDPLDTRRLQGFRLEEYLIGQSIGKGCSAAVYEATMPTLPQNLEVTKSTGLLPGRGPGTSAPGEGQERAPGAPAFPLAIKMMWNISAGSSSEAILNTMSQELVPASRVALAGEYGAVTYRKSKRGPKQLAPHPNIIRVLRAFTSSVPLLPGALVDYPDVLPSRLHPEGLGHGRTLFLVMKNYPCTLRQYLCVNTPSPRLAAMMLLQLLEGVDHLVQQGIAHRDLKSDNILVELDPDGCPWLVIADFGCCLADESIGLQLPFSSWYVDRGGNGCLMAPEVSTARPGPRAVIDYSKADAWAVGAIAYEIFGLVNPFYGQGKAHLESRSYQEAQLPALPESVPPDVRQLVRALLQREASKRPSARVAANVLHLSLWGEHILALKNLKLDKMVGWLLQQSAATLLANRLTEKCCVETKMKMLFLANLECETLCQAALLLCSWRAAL
Chain of Death-associated protein kinase 1 (Homo sapiens) (P53355 whole entry, looked up): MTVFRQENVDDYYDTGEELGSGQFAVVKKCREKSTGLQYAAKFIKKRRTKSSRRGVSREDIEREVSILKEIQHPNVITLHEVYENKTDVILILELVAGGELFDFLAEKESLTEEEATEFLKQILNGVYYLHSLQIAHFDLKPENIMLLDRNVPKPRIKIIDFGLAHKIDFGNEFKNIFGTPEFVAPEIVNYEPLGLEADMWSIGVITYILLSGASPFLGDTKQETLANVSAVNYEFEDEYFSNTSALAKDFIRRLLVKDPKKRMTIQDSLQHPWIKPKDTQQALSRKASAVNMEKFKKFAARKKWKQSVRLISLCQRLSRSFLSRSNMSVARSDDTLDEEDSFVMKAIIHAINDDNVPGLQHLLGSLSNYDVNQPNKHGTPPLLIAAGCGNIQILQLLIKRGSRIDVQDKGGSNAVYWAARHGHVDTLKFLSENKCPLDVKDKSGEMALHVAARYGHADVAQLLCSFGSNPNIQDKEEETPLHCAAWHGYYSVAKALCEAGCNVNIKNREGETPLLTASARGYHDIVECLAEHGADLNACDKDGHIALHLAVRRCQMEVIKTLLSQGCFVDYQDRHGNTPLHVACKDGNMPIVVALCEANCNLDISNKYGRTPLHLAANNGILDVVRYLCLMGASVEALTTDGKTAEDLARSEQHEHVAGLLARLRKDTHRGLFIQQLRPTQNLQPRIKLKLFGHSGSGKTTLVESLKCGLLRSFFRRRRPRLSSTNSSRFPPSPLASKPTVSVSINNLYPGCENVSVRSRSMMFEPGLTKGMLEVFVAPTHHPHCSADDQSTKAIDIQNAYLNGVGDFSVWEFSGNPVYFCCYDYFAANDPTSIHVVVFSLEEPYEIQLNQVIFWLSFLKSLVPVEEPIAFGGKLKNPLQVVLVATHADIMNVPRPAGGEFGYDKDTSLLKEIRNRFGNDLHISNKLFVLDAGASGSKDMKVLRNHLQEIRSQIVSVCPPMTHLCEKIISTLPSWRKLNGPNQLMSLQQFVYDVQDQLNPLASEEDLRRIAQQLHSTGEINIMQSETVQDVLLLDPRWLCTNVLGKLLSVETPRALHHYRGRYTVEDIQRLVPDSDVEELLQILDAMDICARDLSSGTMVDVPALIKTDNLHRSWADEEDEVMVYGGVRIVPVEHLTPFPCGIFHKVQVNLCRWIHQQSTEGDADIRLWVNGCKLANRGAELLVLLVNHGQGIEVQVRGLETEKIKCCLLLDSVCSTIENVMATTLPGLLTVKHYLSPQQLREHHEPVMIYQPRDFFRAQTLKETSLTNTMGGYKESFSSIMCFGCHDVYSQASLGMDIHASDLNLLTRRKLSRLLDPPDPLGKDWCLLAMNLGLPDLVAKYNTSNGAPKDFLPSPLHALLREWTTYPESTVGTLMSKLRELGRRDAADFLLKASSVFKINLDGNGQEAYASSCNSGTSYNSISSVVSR
Chain of Casein kinase I isoform gamma-2 (Homo sapiens) (P78368 whole entry, looked up, canonical isoform): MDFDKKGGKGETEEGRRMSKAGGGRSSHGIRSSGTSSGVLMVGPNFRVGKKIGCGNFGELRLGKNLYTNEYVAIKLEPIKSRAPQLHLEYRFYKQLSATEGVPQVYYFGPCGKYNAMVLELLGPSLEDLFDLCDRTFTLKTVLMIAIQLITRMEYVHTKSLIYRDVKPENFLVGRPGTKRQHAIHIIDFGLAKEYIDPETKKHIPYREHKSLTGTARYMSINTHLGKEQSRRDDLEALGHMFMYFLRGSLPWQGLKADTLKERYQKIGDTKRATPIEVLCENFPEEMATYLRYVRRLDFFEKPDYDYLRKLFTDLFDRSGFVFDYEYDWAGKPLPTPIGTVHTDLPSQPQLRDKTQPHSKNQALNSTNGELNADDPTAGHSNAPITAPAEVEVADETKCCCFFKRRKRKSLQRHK

Cc1ccc(F)c(S(=O)(=O)Nc2ccc(-c3nc(OC[C@H]4CN(CCCCCCOCCOCCOCC(=O)N[C@H](C(=O)N5C[C@H](O)C[C@H]5C(=O)NCc5ccc(-c6scnc6C)cc5)C(C)(C)C)CCO4)c4cn[nH]c4n3)cc2)c1
inactive: % Activity remaining [1] 122% | % Activity remaining [2] 103% | % Activity remaining [3] 90.3% | % Activity remaining [4] 99.9% | % Activity remaining [5] 115% | % Activity remaining [6] 105% | % Activity remaining [7] 115% | % Activity remaining [8] 97.5% | % Activity remaining [9] 78.7% | % Activity remaining [10] 85.8% | Degradation [11] 0% | % Activity remaining [12] 108% | % Activity remaining [13] 106% | % Activity remaining [14] 114% | % Activity remaining [15] 100% | % Activity remaining [16] 93.5% | % Activity remaining [17] 94.6% | % Activity remaining [18] 98.2% | % Activity remaining [19] 114% | % Activity remaining [20] 124% | Degradation [21] 0% | % Activity remaining [22] 101% | % Activity remaining [23] 84.8% | % Activity remaining [24] 95.8% | % Activity remaining [25] 87.6% | % Activity remaining [26] 96.9% | % Activity remaining [27] 97.9% | % Activity remaining [28] 102% | % Activity remaining [29] 63.8% | % Activity remaining [30] 92.5% | % Activity remaining [31] 118% | % Activity remaining [32] 83.4% | % Activity remaining [33] 108% | % Activity remaining [34] 81.9%

Cc1ccc(F)c(S(=O)(=O)Nc2ccc(-c3nc(OC[C@H]4CN(CCCCCCOCCOCCOCC(=O)N[C@H](C(=O)N5C[C@@H](O)C[C@H]5C(=O)NCc5ccc(-c6scnc6C)cc5)C(C)(C)C)CCO4)c4cn[nH]c4n3)cc2)c1
inactive: % Activity remaining [1] 120% | % Activity remaining [2] 118% | % Activity remaining [3] 91.4% | % Activity remaining [4] 108% | % Activity remaining [5] 119% | % Activity remaining [6] 99% | % Activity remaining [7] 116% | % Activity remaining [8] 105% | % Activity remaining [9] 117% | % Activity remaining [10] 91.7% | % Activity remaining [12] 99% | % Activity remaining [13] 111% | % Activity remaining [14] 98% | % Activity remaining [15] 108% | % Activity remaining [16] 89.7% | % Activity remaining [17] 93.8% | % Activity remaining [18] 105% | % Activity remaining [19] 134% | % Activity remaining [20] 128% | % Activity remaining [22] 106% | % Activity remaining [23] 99.1% | % Activity remaining [24] 104% | % Activity remaining [25] 105% | % Activity remaining [26] 90.6% | % Activity remaining [27] 98.4% | % Activity remaining [28] 113% | % Activity remaining [29] 80.8% | % Activity remaining [30] 94.7% | % Activity remaining [31] 113% | % Activity remaining [32] 86.8% | % Activity remaining [33] 109% | % Activity remaining [34] 93.9%
